Test results taken from patent US10626081B2, “Farnesoid X receptor agonists and uses thereof” (Metacrine, Inc., priority 2015, dated 2020).

These compounds were tested against T1, FXR (Homo sapiens, UniProt Q96RI1) (assay: In Vitro FXR Assay (TK): TK-ECRE-luc reporter in transfected CV-1 cells). Conditions: CV-1 cells transfected with hFXR, hRXR, 18 h incubation, luminescence.
T1 construct: expressed in transfected cells; host or cells: CV-1 cells
T1 sequence (Q96RI1 1-486): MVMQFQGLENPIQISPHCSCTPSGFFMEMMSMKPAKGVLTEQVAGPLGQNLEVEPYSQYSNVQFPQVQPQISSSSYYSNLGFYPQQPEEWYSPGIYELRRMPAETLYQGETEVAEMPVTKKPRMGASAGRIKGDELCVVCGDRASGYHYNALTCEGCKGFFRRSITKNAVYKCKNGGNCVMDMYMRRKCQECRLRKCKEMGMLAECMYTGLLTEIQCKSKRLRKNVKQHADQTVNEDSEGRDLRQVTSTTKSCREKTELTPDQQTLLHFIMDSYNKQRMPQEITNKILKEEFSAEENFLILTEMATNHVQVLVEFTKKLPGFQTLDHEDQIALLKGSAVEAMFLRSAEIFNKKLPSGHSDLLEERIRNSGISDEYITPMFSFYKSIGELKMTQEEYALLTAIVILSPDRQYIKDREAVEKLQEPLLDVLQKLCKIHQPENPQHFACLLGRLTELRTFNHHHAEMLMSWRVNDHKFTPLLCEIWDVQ
T1 sequence (P19793 1-462 partner): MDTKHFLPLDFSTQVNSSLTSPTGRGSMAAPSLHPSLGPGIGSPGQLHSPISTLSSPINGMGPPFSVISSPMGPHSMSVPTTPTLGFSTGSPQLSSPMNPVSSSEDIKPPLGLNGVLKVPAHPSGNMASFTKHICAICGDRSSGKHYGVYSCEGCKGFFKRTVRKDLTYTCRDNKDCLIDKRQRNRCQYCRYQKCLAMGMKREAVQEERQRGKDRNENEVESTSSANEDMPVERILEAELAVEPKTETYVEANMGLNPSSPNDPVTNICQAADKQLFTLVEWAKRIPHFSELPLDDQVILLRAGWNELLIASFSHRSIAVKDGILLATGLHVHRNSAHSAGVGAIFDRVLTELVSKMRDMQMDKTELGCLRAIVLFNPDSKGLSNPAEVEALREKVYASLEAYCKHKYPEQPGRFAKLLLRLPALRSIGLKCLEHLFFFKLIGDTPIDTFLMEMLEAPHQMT
Assay type: cell-based
Outline: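 CV-1 cells in charcoal-stripped FBS medium were transiently cotransfected with hFXR, hRXR, TK-ECRE-luc and pCMX-YFP plasmids. After 18 h, compounds serially diluted in DMSO were added for 18 h at 37 °C, 5% CO2, then cells were lysed and luminescence read.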

Row | EC50 | SMILES
1 | 1 to 10 µM | COC(=O)/C=C/c1cccc(N(Cc2ccc(-c3ccc(N(C)C)cc3)cc2C#N)C(=O)C2CCCCC2)c1 [62.12, (E)-Methyl 3-(3-(N-((3-cyano-4′-(dimethylamino)-[1,1′-biphenyl]-4-yl)methyl)cyclohexanecarboxamido)phenyl) acrylate]
2 | > 10 µM | COC(=O)/C=C/c1cccc(N(Cc2ccc(-c3ccc(OC)c(C)c3)cc2)C(=O)C2CCNCC2)c1 [62.15, (E)-Methyl 3-(3-(N-((4′-methoxy-3′-methyl-[1,1′-biphenyl]-4-yl)methyl)piperidine-4-carboxamido)phenyl)acrylate]
3 | > 10 µM | CN(C)c1ccc(-c2ccc(CN(C(=O)C3CCCCC3)c3cccc(/C=C/C(=O)OC4CCCCC4)c3)cc2)cc1 [86.1, (E)-Cyclohexyl 3-(3-(N-((4′-(dimethylamino)-[1,1′-biphenyl]-4-yl)methyl)cyclohexanecarboxamido)phenyl) acrylate]
4 | ≤ 1 µM | COC(=O)/C=C/c1cccc(N(Cc2ccc(-c3cnc(N(C)C)nc3)cc2)C(=O)C2CCCCC2)c1 [75.3, (E)-Methyl 3-(3-(N-(4-(2-(dimethylamino)pyrimidin-5-yl)benzyl)cyclohexanecarboxamido)phenyl) acrylate]
5 | 1 to 10 µM | COC(=O)/C=C/c1cc(OC)cc(N(Cc2ccc(-c3ccc(N(C)C)cc3)cc2)C(=O)C2CCCCC2)c1 [86.8, (E)-Methyl 3-(3-(N-((4′-(dimethylamino)-[1,1′-biphenyl]-4-yl)methyl)cyclohexanecarboxamido)-5-methoxyphenyl)acrylate]

The next lines start with the compound.

Row | SMILES | EC50
6 | COC(=O)/C=C/c1cccc(N(Cc2ccc(-c3ccc(N(C)C)cc3)cc2)C(=O)C2CCSCC2)c1 [13.9, (E)-Methyl 3-(3-(N-((4′-(dimethylamino)-[1,1′-biphenyl]-4-yl)methyl)tetrahydro-2H-thiopyran-4-carboxamido)phenyl)acrylate] | ≤ 1 µM
7 | COC(=O)/C=C/c1cccc(N(Cc2ccc(N(C)C(=O)c3ccccc3)cc2)C(=O)C2CCCCC2)c1 [compound 101, (E)-Methyl 3-(3-(N-(4-(N-methylbenzamido)benzyl)cyclohexane-carboxamido)phenyl)acrylate] | > 10 µM
8 | COC(=O)/C=C/c1cccc(N(Cc2ccc(-c3ccc4c(c3)nnn4C)cc2)C(=O)C2CCCCC2)c1 [75.1, (E)-Methyl 3-(3-(N-(4-(1-methyl-1H-benzo[d][1,2,3]triazol-5-yl)benzyl)cyclohexanecarboxamido)phenyl) acrylate] | 1 to 10 µM
9 | COC(=O)/C=C/c1cccc(N(Cc2ccc(-c3ccc(N(C)C)cc3)cc2)C(=O)[C@H]2CC[C@H](NC(C)=O)CC2)c1 [98.1, trans-(E)-Methyl 3-(3-(4-acetamido-N-((4′-(dimethylamino)-[1,1′-biphenyl]-4-yl)methyl)cyclohexanecarboxamido)phenyl)acrylate] | ≤ 1 µM
10 | COC(=O)/C=C/c1cccc(N(Cc2ccc(-c3ccc(C(=O)OC)cc3)cc2)C(=O)C2CCCCC2)c1 [62.3, (E)-Methyl 4′-((N-(3-(3-methoxy-3-oxoprop-1-en-1-yl)phenyl)cyclohexanecarboxamido)methyl)-[1,1′-biphenyl]-4-carboxylate] | 1 to 10 µM
11 | CC(C)=CCc1cccc(N(Cc2ccc(-c3ccc(N(C)C)cc3)cc2)C(=O)C2CCCCC2)c1 [compound 99, N-((4′-(Dimethylamino)-[1,1′-biphenyl]-4-yl)methyl)-N-(3-(3-methylbut-2-en-1-yl)phenyl) cyclohexanecarboxamide] | > 10 µM
12 | COC(=O)/C=C/c1cccc(N(Cc2ccc(NC(=O)c3ccccc3)cc2)C(=O)C2CCCCC2)c1 [compound 100, (E)-Methyl 3-(3-(N-(4-benzamidobenzyl)cyclohexanecarboxamido)phenyl)acrylate] | 1 to 10 µM
13 | COCCOC(=O)/C=C/c1cccc(N(Cc2ccc(-c3ccc(N(C)C)cc3)cc2)C(=O)C2CCCCC2)c1 [86.3, (E)-2-Methoxyethyl 3-(3-(N-((4′-(dimethylamino)-[1,1′-biphenyl]-4-yl)methyl)cyclohexanecarboxamido)phenyl) acrylate] | 1 to 10 µM
